We go through one molecule from patent US9789101B2, “Methods and compositions for treating microbial infection using pyrroloquinone” (HELPERBY THERAPEUTICS LIMITED, priority 2010, dated 2017).

The subject of test [1] is stationary phase Staphylococcus aureus. The experiment in a line: In vitro efficacy test against stationary phase Staphylococcus aureus (CFU counts). The format is cell-based, Staphylococcus aureus (Oxford). As for the experimental part: (§1) Staphylococcus aureus (Oxford); Gram positive; Reference strain.
Stationary phase growth of methicilin sensitive Staphylococcus aureus (MSSA) was carried out as follows:
Subculture of the bacterial strains on agar plates: Overnight S. aureus bacterial cultures were stored at −70° C. with 20% glycerol (cryoprotectant). A loopful of the frozen cells was streaked on a blood agar plate which was incubated at 37° C. overnight (or longer) as culture plate A. A single colony of each strain from the culture plate A was streaked on the blood agar plate which was incubated at 37° C. overnight (or longer) as culture plate B. The culture plate B was stored at 4° C. for a week and served as the initial inoculation plate.
Bacterial growth in broth culture: A single colony from culture plate B was inoculated in 10 ml of nutrient broth (No. 2, (Oxoid)), which was incubated overnight at 37° C. with continuous shaking at 120 rpm. 200 μl of the overnight culture was added into a 500 ml bottle containing 100 ml of nutrient broth. The 100 ml culture was incubated at 37° C. with continuous shaking for 6 to 7 days. Viability of the cultures is estimated by colony forming unit (CFU) counts at 2 hour intervals for the first 24 hours and 12 to 24 hours afterwards.
Colony Forming Unit (CFU) counts were performed as follows: From serial 10-fold dilutions of the cultures, 100 μl samples were added to one third of blood agar plates (Oxoid) in triplicate. CFUs were counted using an aCoLyte colony counter (Synbiosis) after incubation of the plates at 37° C. for 24 hours or longer.
7 day old stationary phase cultures were used. The stationary phase cultures were diluted to obtain CFU counts in the cell suspension of 10^6 to 10^7 CFU/ml. The cell suspension was used to test drug sensitivity.
(§2) HT61 was dissolved in DMSO to the stock concentration of 10 mg/ml.
HT00800059 was dissolved in H2O to the stock solution 10 mg/ml
The drugs were first diluted as follows: • 7.2 μl of HT61 at 10 mg/ml was added into 292.8 μl of H2O followed by diluting 2 fold, 3 times. • 57.6 μl of HT00800059 at 10 mg/ml was added into 242.4 μl of H2O followed by diluting 2 fold, 2 times. • 10 μl of HT00800059 from each dilution was added into the wells of a 96 well plate followed by the addition of 290 μl of bacterial cell suspension to make the final concentrations of HT00800059 at 64, 32 and 0 μg/ml. • […]
In combination of two drugs: 10 μl of HT61 from each dilution was added into the wells of a 96 well plate followed by the addition of 10 μl of HT00800059 from each dilution. […]

Test [2] deals with log phase Staphylococcus aureus. Nature of the test: Chequerboard analysis of HT00800059 and HT61 against log phase Staphylococcus aureus. The format is cell-based, Staphylococcus aureus (Oxford). On the procedure:
as §1
Log phase growth of methicilin sensitive Staphylococcus aureus (MSSA) was carried out as follows: • Bacteria were grown in 10 ml of nutrient broth (No. 2, (Oxoid)) overnight at 37° C. with continuous shaking at 120 rpm. The overnight cultures were diluted 1000× with iso-sensitest broth. The cultures were incubated at 37° C. with shaking for 1-2 hours to reach log CFU 6. Viability of the bacteria was estimated by colony forming unit (CFU) counts. From serial 10-fold dilutions of the experimental cultures, 100 μl samples were added to triplicate plates of nutrient agar plates (Oxoid) or blood agar plates (Oxoid). CFUs were counted after incubation of the plates at 37° C. for 24 hours.
Bacterial cultures: 10 μl of overnight cultures was added to 10 ml of fresh iso-sensitest broth to make the inoculation to 10^6 CFU/ml. 290 μl of the cell suspension was added to each well of the 96 well plate, which was incubated at 37° C. for 24 hours. 300 μl of iso-sensitest broth without bacterial cells were added to wells of the plate as a no bacterial control.
MIC determination: The optical density of the bacterial cells was read at 405 nm using a plate reader (Bio TEK). The MIC concentration was determined as the lowest concentration of drug which inhibits the bacterial growth.
as §2
HT00800059 was dissolved in H2O to the stock solution 30.07 mg/ml.
The drugs were first diluted as follows: • 28.8 μl of HT61 at 10 mg/ml was added into 271.2 μl of H2O followed by diluting 2 fold for 6 times.
Both drugs were mixed as following pattern: 10 μl of HT00800059 from each dilution was added into the wells of a 96 well plate from top to bottom and 10 μl of HT61 from each dilution was added to the same 96 well plate from left to right. After addition of 280 μl log phase cell suspension, the final concentrations of drugs for each well in the 96 well plate are shown in the table below.
Incubation of the compounds with the bacterial suspension was carried out for 24 hours. The kill effect of the drug combination and signal drug MIC was measured by optical density reading at 405 nm with a plate reader (Bio TEK). The MIC concentration was determined as the lowest concentration of drug which inhibits the bacterial growth.
The fractional inhibitory concentration (FIC) index was carried out as follows: (MIC of drug A, tested in combination)/(MIC of drug A, tested alone)+(MIC of drug B, tested in combination)/(MIC of drug B, tested alone). The interaction was defined as synergistic if the FIC index was <1, additive if the FIC index was =1 and antagonistic if the FIC index was >1.

In test [3] the test system is log phase (i.e. multiplying) bacteria. As to conditions: J. Am. Pharm. Assoc. 1956; cited from earlier work.

Molecules are shown by their SMILES. Counter-ions that a name gives are not always drawn. Like-named read-outs stand apart in the source and are kept apart here.

The MIC is the least concentration at which growth counts as inhibited. Consider `CCCCOc1ccc(C(=O)CCN2CCCCC2)cc1` [HT00800059, dyclonine (1-(4-Butoxyphenyl)-3-(1-piperidinyl)-1-propanone) hydrochloride], for which the CFU killed entry in test [1] (32 μg/ml, over 8 hours) is reported as “about 10^4 CFU”; in test [1] (64 μg/ml, over 6 hours), “about 10^7 CFU”. Further, the minimum inhibitory concentration (MIC) in test [2] (Staphylococcus aureus) turned out to be 512 µg/mL; in test [2] (Staphylococcus aureus, read-out: alone MIC), 512 µg/mL; in test [2] (Staphylococcus aureus, with HT61 4 μg/ml, Plate 1, read-out: MIC of HT00800059 + HT61), 128 µg/mL; in test [2] (drug alone, Plate 2), 512 µg/mL. In test [2] (with HT61 4 μg/ml), the “HT00800059 MIC in combination” value came out at 128 µg/mL. In test [2] (with HT61 4 μg/ml, Plate 2), the “MIC of HT00800059 + HT61” value stood at 128 µg/mL. Besides, in test [3], the “activity in vitro against a variety of log phase bacteria” value was “activity”.
